From patent publication US20190352276A1, “INHIBITORS OF BRUTON'S TYROSINE KINASE” (Joint Stock Company "Biocad", priority 2016, published 2019)
pIC50: −log10 of the molar value.

Tests used:
[1] = system: DOHH2 (follicular lymphoma); assay: Antiproliferative activity, DOHH2 cells (Alamar Blue); format: cell-based; conditions: Homo sapiens, DOHH-2, Table 10, 72 h, average of several tests
Summary of the method: (§1)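 IC50 values come from a four-parameter logistic fit of Alamar Blue fluorescence (540 nm excitation, 590 nm emission) read 14-16 h after reagent addition. Before that, the lymphoma lines, about 3*10^4 cells per well in 10% FBS RPMI-1640, were incubated with compound for 72 h at 37 °C, keeping final DMSO below 1%.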

[2] = system: Mino (mantle cell lymphoma); assay: Antiproliferative activity, Mino cells (Alamar Blue); format: cell-based; conditions: Homo sapiens
Summary of the method: as §1

[3] = Stability in human blood plasma; conditions: 10 μM in pooled human blood plasma, incubated 4 hours at 37° C.
Description: To assess the blood plasma stability of the drug candidates, we used pooled human blood plasma taken from ten healthy donors. The initial solution (10 Mm in DMSO) was diluted with pooled blood plasma to 10 μM (test solution). The test solution had been incubated for 4 hours in a dry block heater at 37° C. We determined peak areas of the compounds corresponding to the start of the test (before incubating) and the end of the test (after incubating in a dry block heater at 37° C.) by HPLC using Agilent1200 chromatograph (Agilent, USA) with preliminary protein precipitation with acetonitrile. We used gradient elution (1 mL/min flow rate). We determined amount of substance in the sample in % after incubation.
(§2) We evaluated the stability of the compounds.

TEC = molecular target: T1, TEC (Homo sapiens, UniProt P42680); assay: In vitro kinase panel: TEC; format: biochemical; conditions: Table 9 kinase panel
T1 construct: purchased SignalChem T03-10G
T1 sequence (P42680 1-631): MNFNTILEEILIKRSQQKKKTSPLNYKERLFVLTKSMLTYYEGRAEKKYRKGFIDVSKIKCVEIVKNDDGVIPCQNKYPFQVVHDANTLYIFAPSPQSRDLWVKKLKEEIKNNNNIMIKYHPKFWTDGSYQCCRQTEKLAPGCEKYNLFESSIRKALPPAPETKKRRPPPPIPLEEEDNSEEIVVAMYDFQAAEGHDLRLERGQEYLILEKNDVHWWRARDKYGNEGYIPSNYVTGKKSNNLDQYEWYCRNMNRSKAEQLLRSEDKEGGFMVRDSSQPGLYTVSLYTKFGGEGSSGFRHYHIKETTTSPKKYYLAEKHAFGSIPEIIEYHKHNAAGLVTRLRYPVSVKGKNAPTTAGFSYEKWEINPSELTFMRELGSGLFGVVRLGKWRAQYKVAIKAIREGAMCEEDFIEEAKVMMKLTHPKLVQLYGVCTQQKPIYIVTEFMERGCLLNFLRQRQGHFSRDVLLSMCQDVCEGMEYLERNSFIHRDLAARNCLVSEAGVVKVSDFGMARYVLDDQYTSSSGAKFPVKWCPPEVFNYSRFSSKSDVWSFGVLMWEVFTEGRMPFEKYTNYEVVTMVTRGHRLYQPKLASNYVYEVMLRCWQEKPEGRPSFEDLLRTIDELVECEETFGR
Description: The measurements were carried out in a 25 μL reaction volume using a 96-well plate (Corning, #3642). The kinase enzyme and inhibitor were pre-incubated for 10 minutes in the reaction buffer containing 25 mM of MOPS (pH 7.2), 12.5 mM of 0-glycerophosphate, 27 mM of MgCl2, 2 mM of MnCl2, 5 mM of EGTA, 2 mM of EDTA, 0.3 mM of DTT, and 1.2 mg/mL of bovine serum albumin. Staurosporine (Abcam Biochemicals, ab146588) was used as a reference inhibitor and 0.1% DMSO in the reaction buffer—as a negative control. The solution of 0.5 mg/mL peptide substrate and 50 &M ATP in the same buffer were added; the solution was incubated for 180 minutes at 37° C. To detect the amount of ATP taken up during the kinase reaction, the equivalent amount of ADP (from the ADP Glo Detection Kit (Promega, #V9101)) was used according to the protocol. The reaction mixture was equilibrated to room temperature. 25 µL of ADP-Glo Reagent were added into each well; the plate was incubated for 40 minutes. 50 μL of Kinase Detection Reagent were added; the plate was incubated for 30 minutes. The luminescence was measured with multimode plate reader (Tecan Infinite M200Pro, Switzerland). IC50 values were calculated using Magellan 7.2 software (Tecan, Switzerland) approximating experimental points by four-parameter logistic model with the optimization by Levenberg-Marquardt.
For active compounds selected by screening using the target enzyme BTK, the values of IC50 were determined on a kinase panel: EGFR (SignalChem, #E10-11G), ITK (SignalChem, #I13-10G) and TEC (SignalChem, #T03-10G).

[4] = system: Z-138 (mantle cell lymphoma); assay: Antiproliferative activity, Z-138 cells (Alamar Blue); format: cell-based; conditions: Homo sapiens
Summary of the method: as §1

[5] = Chemical stability in artificial gastric fluid (SGF without enzymes); conditions: 10 μM in SGF without enzymes, pH=1.4, 37° C.
Description: The initial candidate solution (10 mM in DMSO) was diluted with the working solution of SGF to the concentration of 10 μm (test solution). The test solution was incubated in a dry block heater at 37° C. We determined peak areas of the compounds corresponding to the start of the test (before incubating) and the end of the test (after incubating in a dry block heater at 37° C.) by HPLC using Agilent1200 chromatograph (Agilent, USA). We used gradient elution (1 mL/min flow rate). We determined amount of substance in the sample in % after incubation.
as §2

[6] = Table 10, 72 h, average of several tests

Row | pIC50 [1] | pIC50 [2, 6] | Amount of substance in the sample, % (stability in human blood plasma) [3] [%] | pIC50 (TEC) | pIC50 [4, 6] | Amount of substance in the sample in % (chemical stability) [5] [%] | pIC50 ([2]; Table 11, 72 h) | pIC50 ([4]; Table 11, 72 h) | Structure (SMILES)
1 | 5.08 | 4.76 | 100.0 | 8.18 | 4.78 | 100 | – | – | C=CC(=O)N1CCC[C@@H](n2nc(-c3ccc(C(=O)Nc4ccccn4)cc3)c3c(N)nccc32)C1 [BCD-BTK-242, (R)-4-(1-(1-acryloylpiperidin-3-yl)-4-amino-1H-pyrazolo[4,3-c]pyridin-3-yl)-N-(pyridin-2-yl)benzamide]
2 | 5.47 | 5.44 | – | 8.14 | 5.35 | – | – | – | C=CC(=O)N1CCC[C@@H](n2nc(-c3ccc(C(=O)Nc4cc(C(F)(F)F)ccn4)cc3)c3c(N)ncc(Cl)c32)C1 [BCD-BTK-251, (R)-4-(1-(1-acryloylpiperidin-3-yl)-4-amino-7-chloro-1H-pyrazolo[4,3-c]pyridin-3-yl)-N-(4-(trifluoromethyl)pyridin-2-yl)benzamide]
3 | – | – | – | – | – | – | 5.14 | 4.84 | C=CC(=O)N1CCC[C@@H](n2nc(-c3ccc(Oc4ccncc4)cc3)c3cncc(Cl)c32)C1 [BCD-BTK-125, (R)-1-(1-acryloylpiperidin-3-yl)-7-chloro-3-(4-(pyridin-4-yloxy)phenyl)-1H-pyrazolo[4,3-c]pyridine]
4 | 4.71 | 5.35 | – | < 7.00 | 4.83 | – | – | – | C=CC(=O)N1CCC[C@@H](n2nc(-c3ccc(C(=O)Nc4cc(C(F)(F)CCC)ccn4)cc3)c3cncc(Cl)c32)C1 [BCD-BTK-252, (R)-4-(1-(1-acryloylpiperidin-3-yl)-7-chloro-1H-pyrazolo[4,3-c]pyridin-3-yl)-N-(4-(1,1-difluorobutyl)pyridin-2-yl)benzamide]
5 | – | – | – | – | – | – | 4.99 | 4.68 | C=CC(=O)N1CCC[C@@H](n2nc(-c3ccc(Oc4ccncc4)cc3)c3c(N)ncc(Cl)c32)C1 [BCD-BTK-139, (R)-1-(1-acryloylpiperidin-3-yl)-7-chloro-3-(4-(pyridin-4-yloxy)phenyl)-1H-pyrazolo[4,3-c]pyridin-4-amine]
6 | 5.70 | 4.85 | 100.0 | 8.42 | 4.98 | 100 | – | – | C=CC(=O)N1CCC[C@@H](n2nc(-c3ccc(C(=O)Nc4ccccn4)cc3)c3c(N)ncc(OC)c32)C1 [BCD-BTK-240, (R)-4-(1-(1-acryloylpiperidin-3-yl)-4-amino-7-methoxy-1H-pyrazolo[4,3-c]pyridin-3-yl)-N-(pyridin-2-yl)benzamide]
7 | 5.02 | 4.98 | 90.2 | < 7.00 | 4.85 | 100 | – | – | C=CC(=O)N1CCC[C@@H](n2nc(-c3ccc(Oc4cccnc4C(N)=O)cc3)c3cncc(Cl)c32)C1 [BCD-BTK-220, 3-(4-{7-chloro-1-[(3R)-1-(prop-2-enoyl)piperidin-3-yl]-1H-pyrazolo[4,3-c]pyridin-3-yl}phenoxy)pyridine-2-carboxamide]
8 | 4.82 | 4.76 | – | 8.53 | 4.45 | 100 | – | – | C=CC(=O)N1CCC[C@@H](n2nc(-c3ccc(C(=O)Nc4ncccc4F)cc3)c3c(N)ncc(C#N)c32)C1 [BCD-BTK-258, 4-{4-amino-7-cyano-1-[(3R)-1-(prop-2-enoyl)piperidin-3-yl]-1H-pyrazolo[4,3-c]pyridin-3-yl}-N-(3-fluoropyridin-2-yl)benzamide]
9 | 4.83 | 5.01 | 93.3 | < 6.70 | 4.84 | 99.9 | – | – | C=CC(=O)N1CCC[C@@H](n2nc(-c3ccc(Oc4cccnc4C#N)cc3)c3cncc(F)c32)C1 [BCD-BTK-230, (R)-3-(4-(1-(1-acryloylpiperidin-3-yl)-7-fluoro-1H-pyrazolo[4,3-c]pyridin-3-yl)phenoxy)picolinonitrile]
10 | 5.05 | 5.02 | 83.5 | 7.83 | 4.77 | 100 | – | – | C=CC(=O)N1CCC[C@@H](n2nc(-c3ccc(C(=O)Nc4ccccn4)cc3)c3c(N)ncc(C#N)c32)C1 [BCD-BTK-234, (R)-4-(1-(1-acryloylpiperidin-3-yl)-4-amino-7-cyano-1H-pyrazolo[4,3-c]pyridin-3-yl)-N-(pyridine-2-yl)benzamide]
11 | 5.05 | 5.11 | – | < 6.30 | 4.90 | – | – | – | C=CC(=O)N1CCC[C@@H](n2nc(-c3ccc(Oc4ccncc4C#N)cc3)c3cncc(Cl)c32)C1 [BCD-BTK-202, (R)-4-(4-(1-(1-acryloylpiperidin-3-yl)-7-chloro-1H-pyrazolo[4,3-c]pyridin-3-yl)phenoxy)nicotinonitrile]
12 | 4.68 | 5.47 | – | 7.11 | < 4.30 | – | – | – | C=CC(=O)N1CCC[C@@H](n2nc(-c3cnc(C(=O)Nc4cc(C(F)(F)CCC)ccn4)nc3)c3cncc(Cl)c32)C1 [BCD-BTK-292, (R)-5-(1-(1-acryloylpiperidin-3-yl)-7-chloro-1H-pyrazolo[4,3-c]pyridin-3-yl)-N-(4-(1,1-difluorobutyl)pyridin-2-yl)pyrimidine-2-carboxamide]
13 | 5.10 | 4.92 | – | 7.26 | 5.18 | – | – | – | C=CC(=O)N1CCC[C@@H](n2nc(-c3ccc(C(=O)Nc4ccccn4)cc3)c3cncc(Cl)c32)C1 [BCD-BTK-201]
14 | 5.09 | 4.85 | 80.3 | 8.22 | 4.80 | 100 | – | – | C=CC(=O)N1CCC[C@@H](n2nc(-c3ccc(Oc4ccncc4)cc3)c3c(N)ncc(OC)c32)C1 [BCD-BTK-239, (R)-1-(1-acryloylpiperidin-3-yl)-4-amine-7-methoxy-3-(4-(pyridin-4-yloxy)phenyl)-1H-pyrazolo[4,3-c]pyridine]
